Measured values published in patent US8901313B2, “6,5-heterocyclic propargylic alcohol compounds and uses therefor” (Genentech, Inc., priority 2011, dated 2014).

molecular target: T1, nuclear factor-kappa B (NF-kB)-inducing kinase (NIK) (Homo sapiens, UniProt Q99558); assay: NIK Enzyme Inhibition Assay (Transcreener ADP assay); type: biochemical; conditions: purified NIK 0.2-1 nM, 10 uM ATP, fluorescence polarization, Morrison's quadratic equation; read-out: inhibitory value (Ki) for NIK
T1 construct: made in house; host or cells: baculovirus-infected insect cells
T1 sequence (Q99558 whole entry): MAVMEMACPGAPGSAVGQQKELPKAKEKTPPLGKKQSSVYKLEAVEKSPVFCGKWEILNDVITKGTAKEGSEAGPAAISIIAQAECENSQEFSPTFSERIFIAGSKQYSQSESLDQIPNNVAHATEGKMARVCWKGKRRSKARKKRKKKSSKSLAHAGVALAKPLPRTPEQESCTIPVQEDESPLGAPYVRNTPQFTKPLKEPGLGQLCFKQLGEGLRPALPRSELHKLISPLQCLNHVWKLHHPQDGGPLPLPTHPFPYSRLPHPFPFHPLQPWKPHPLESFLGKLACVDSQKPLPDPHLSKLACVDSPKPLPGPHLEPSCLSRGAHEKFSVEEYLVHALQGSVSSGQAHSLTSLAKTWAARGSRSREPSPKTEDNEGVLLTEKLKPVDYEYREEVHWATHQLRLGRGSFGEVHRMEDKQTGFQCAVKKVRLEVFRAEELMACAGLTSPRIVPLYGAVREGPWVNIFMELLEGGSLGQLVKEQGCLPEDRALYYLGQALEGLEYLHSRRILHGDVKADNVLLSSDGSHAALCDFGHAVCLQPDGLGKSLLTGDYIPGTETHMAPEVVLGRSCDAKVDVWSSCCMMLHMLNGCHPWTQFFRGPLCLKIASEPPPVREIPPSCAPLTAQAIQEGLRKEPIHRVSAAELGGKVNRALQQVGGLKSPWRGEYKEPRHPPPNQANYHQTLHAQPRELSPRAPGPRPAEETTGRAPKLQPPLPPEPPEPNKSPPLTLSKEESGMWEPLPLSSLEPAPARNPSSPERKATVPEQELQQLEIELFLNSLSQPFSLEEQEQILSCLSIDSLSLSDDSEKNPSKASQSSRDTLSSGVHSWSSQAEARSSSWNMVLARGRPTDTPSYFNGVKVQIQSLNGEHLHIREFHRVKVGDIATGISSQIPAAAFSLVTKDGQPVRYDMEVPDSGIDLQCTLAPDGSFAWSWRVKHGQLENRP

Row | Ki | Structure (SMILES)
1 | 6 nM | CC(O)(C#Cc1ccc2c(CO)nn(-c3ccnc(N)n3)c2c1)c1ncccn1 (stereo not drawn) [Example T1.1-61, 4-[1-(2-aminopyrimidin-4-yl)-3-(hydroxymethyl)indazol-6-yl]-2-pyrimidin-2-yl-but-3-yn-2-ol]
2 | 6 nM | Cc1nc2ccc(C#CC(C)(O)c3ncccn3)cc2n1-c1ncnc(N)n1 (stereo not drawn) [Example T1.1-62, 4-[3-(4-amino-1,3,5-triazin-2-yl)-2-methyl-benzimidazol-5-yl]-2-pyrimidin-2-yl-but-3-yn-2-ol]
3 | 6 nM | CC(O)(C#Cc1ccc2c(C(=O)N3CC4(COC4)C3)nn(-c3ccnc(N)n3)c2c1)c1ncccn1 (stereo not drawn) [Example T1.1-63, [1-(2-aminopyrimidin-4-yl)-6-(3-hydroxy-3-pyrimidin-2-yl-but-1-ynyl)indazol-3-yl]-(2-oxa-6-azaspiro[3.3]heptan-6-yl)methanone]
4 | 6 nM | CN(C)C(=O)c1nn(-c2ccnc(N)n2)c2cc(C#CC(C)(O)c3ncccn3)ccc12 (stereo not drawn) [Example T1.1-64, 1-(2-aminopyrimidin-4-yl)-6-(3-hydroxy-3-pyrimidin-2-yl-but-1-ynyl)-N,N-dimethyl-indazole-3-carboxamide]
5 | 7 nM | Cc1nc([C@](C)(O)C#Cc2ccc3c(CN4CC(F)(F)C4)nn(-c4ccnc(N)n4)c3c2)no1 [Example T1.1-65, (2R)-4-[1-(2-aminopyrimidin-4-yl)-3-[(3,3-difluoroazetidin-1-yl)methyl]indazol-6-yl]-2-(5-methyl-1,2,4-oxadiazol-3-yl)but-3-yn-2-ol]
6 | 7 nM | CC(O)(C#Cc1ccc2c(C(=O)N3CC4CC3CO4)nn(-c3ccnc(N)n3)c2c1)c1ncccn1 (stereo not drawn) [Example T1.1-66, [1-(2-aminopyrimidin-4-yl)-6-(3-hydroxy-3-pyrimidin-2-yl-but-1-ynyl)indazol-3-yl]-(2-oxa-5-azabicyclo[2.2.1]heptan-5-yl)methanone]
7 | 8 nM | CC(C)(O)c1nn(-c2ccnc(N)n2)c2cc(C#CC3(O)CCc4cccnc43)ccc12 (stereo not drawn) [Example T1.1-67, 7-[2-[1-(2-aminopyrimidin-4-yl)-3-(1-hydroxy-1-methyl-ethyl)indazol-6-yl]ethynyl]-5,6-dihydrocyclopenta[b] pyridin-7-ol]
8 | 9 nM | Cc1nc([C@](C)(O)C#Cc2ccc3c(C(=O)N4CCC(F)CC4)nn(-c4nc(N)ncc4Cl)c3c2)no1 [Example T1.1-68, [1-(2-amino-5-chloro-pyrimidin-4-yl)-6-[(3R)-3-hydroxy-3-(5-methyl-1,2,4-oxadiazol-3-yl)but-1-ynyl]indazol-3-yl]-(4-fluoro-1-piperidyl)methanone]
9 | 9 nM | CC1CN(C(=O)c2nn(-c3ccnc(N)n3)c3cc(C#CC(C)(O)c4ncccn4)ccc23)CC(C)O1 (stereo not drawn) [Example T1.1-69, [1-(2-aminopyrimidin-4-yl)-6-(3-hydroxy-3-pyrimidin-2-yl-but-1-ynyl)indazol-3-yl]-(2,6-dimethylmorpholin-4-yl) methanone]
10 | 9 nM | Cc1cc(C(C)(O)C#Cc2ccc3nc(OCC4COC(C)(C)O4)n(-c4ccnc(N)n4)c3c2)no1 (stereo not drawn) [Example T1.1-70, 4-[3-(2-aminopyrimidin-4-yl)-2-[(2,2-dimethyl-1,3-dioxolan-4-yl)methoxy]benzimidazol-5-yl]-2-(5-methylisoxazol-3-yl)but-3-yn-2-ol]
11 | 10 nM | Cc1nc([C@](C)(O)C#Cc2ccc3c(C(=O)N4CCCCC4)nn(-c4nc(N)ncc4Cl)c3c2)no1 [Example T1.1-71, [1-(2-amino-5-chloro-pyrimidin-4-yl)-6-[(3R)-3-hydroxy-3-(5-methyl-1,2,4-oxadiazol-3-yl)but-1-ynyl]indazol-3-yl]-(1-piperidyl)methanone]
12 | 12 nM | CC(O)(C#Cc1ccc2nc(OC3COC3)n(-c3ccnc(N)n3)c2c1)c1ncccn1 (stereo not drawn) [Example T1.1-72, 4-[3-(2-aminopyrimidin-4-yl)-2-(oxetan-3-yloxy)benzimidazol-5-yl]-2-pyrimidin-2-yl-but-3-yn-2-ol]
13 | 12 nM | Cc1nn(-c2ccnc(N)n2)c2cc(C#CC(C)(O)c3cc[nH]n3)ccc12 (stereo not drawn) [Example T1.1-73, 4-[1-(2-aminopyrimidin-4-yl)-3-methyl-indazol-6-yl]-2-(1H-pyrazol-3-yl)but-3-yn-2-ol]
14 | 13 nM | CC1CN(C(=O)c2nn(-c3ccnc(N)n3)c3cc(C#CC(C)(O)c4ncccn4)ccc23)CC(C)O1 (stereo not drawn) [Example T1.1-74, [1-(2-aminopyrimidin-4-yl)-6-(3-hydroxy-3-pyrimidin-2-yl-but-1-ynyl)indazol-3-yl]-(2,6-dimethylmorpholin-4-yl) methanone]
15 | 14 nM | CC(O)(C#Cc1ccc2c(C(=O)N3CCOCC3)nn(-c3ccnc(N)n3)c2c1)CF (stereo not drawn) [Example T1.1-75, [1-(2-aminopyrimidin-4-yl)-6-(4-fluoro-3-hydroxy-3-methyl-but-1-ynyl)indazol-3-yl]-morpholino-methanone]
16 | 16 nM | Cc1nn(-c2ccnc(N)n2)c2cc(C#CC(C)(O)c3cocn3)ccc12 (stereo not drawn) [Example T1.1-76, 4-[1-(2-aminopyrimidin-4-yl)-3-methyl-indazol-6-yl]-2-oxazol-4-yl-but-3-yn-2-ol]
17 | 20 nM | CC(O)(C#Cc1ccc2c(CN3CCOCC3)nn(-c3ccnc(N)n3)c2c1)c1ncccn1 (stereo not drawn) [Example T1.1-78, 4-[1-(2-aminopyrimidin-4-yl)-3-(morpholinomethyl)indazol-6-yl]-2-pyrimidin-2-yl-but-3-yn-2-ol]

Row | Ki | Structure (SMILES)
18 | 20 nM | Cc1cc(C(C)(O)C#Cc2ccc3c(C(NC4CCCC4)C4CC4)nn(-c4ccnc(N)n4)c3c2)no1 (stereo not drawn) [Example T1.1-79, 4-[1-(2-aminopyrimidin-4-yl)-3-[(cyclopentylamino)-cyclopropyl-methyl]indazol-6-yl]-2-(5-methyl-isoxazol-3-yl)but-3-yn-2-ol]
19 | 24 nM | Cc1nc([C@](C)(O)C#Cc2ccc3c(c2)n(-c2ccnc(N)n2)c(=O)n3CC2CC2)no1 [Example T1.1-81, 3-(2-aminopyrimidin-4-yl)-1-(cyclopropylmethyl)-5-[(3R)-3-hydroxy-3-(5-methyl-1,2,4-oxadiazol-3-yl)but-1-ynyl] benzimidazol-2-one]
20 | 25 nM | Cc1noc(C(C)(O)C#Cc2ccc3c(C(=O)N(C)C)nn(-c4ccnc(N)n4)c3c2)n1 (stereo not drawn) [Example T1.1-82, 1-(2-aminopyrimidin-4-yl)-6-[3-hydroxy-3-(3-methyl-1,2,4-oxadiazol-5-yl)but-1-ynyl]-N,N-dimethyl-indazole-3-carboxamide]
21 | 25 nM | Cn1cnc(C(C)(O)C#Cc2ccc3c(C(=O)N4CCOCC4)nn(-c4ccnc(N)n4)c3c2)n1 (stereo not drawn) [Example T1.1-83, [1-(2-aminopyrimidin-4-yl)-6-[3-hydroxy-3-(1-methyl-1,2,4-triazol-3-yl)but-1-ynyl]indazol-3-yl]-morpholino-methanone]
22 | 27 nM | COCc1cc(C(C)(O)C#Cc2ccc3c(C(=O)N4CCOCC4)nn(-c4ccnc(N)n4)c3c2)no1 (stereo not drawn) [Example T1.1-84, [1-(2-aminopyrimidin-4-yl)-6-[3-hydroxy-3-[5-(methoxymethyl)isoxazol-3-yl]but-1-ynyl]indazol-3-yl]-morpholino-methanone]
23 | 27 nM | Cc1cc(C(C)(O)C#Cc2ccc3c(C(NC4CCCC4)C4CC4)nn(-c4ccnc(N)n4)c3c2)no1 (stereo not drawn) [Example T1.1-85, 4-[1-(2-aminopyrimidin-4-yl)-3-[(cyclopentylamino)-cyclopropyl-methyl]indazol-6-yl]-2-(5-methyl-isoxazol-3-yl)but-3-yn-2-ol]
24 | 31 nM | Nc1nccc(-n2nc(C(=O)N3CCOCC3)c3ccc(C#CC(O)(CF)CF)cc32)n1 [Example T1.1-86, [1-(2-aminopyrimidin-4-yl)-6-[4-fluoro-3-(fluoromethyl)-3-hydroxy-but-1-ynyl]indazol-3-yl]-morpholino-methanone]
25 | 39 nM | Cn1cc(-c2cnc(N)nc2-n2ncc3ccc(C#CC(C)(C)O)cc32)cn1 [Example T1.1-87, 4-[1-[2-amino-5-(1-methyl-pyrazol-4-yl)pyrimidin-4-yl]indazol-6-yl]-2-methyl-but-3-yn-2-ol]
26 | 46 nM | Cc1cc([C@@](C)(O)C#Cc2ccc3c(C(=O)N4CCOCC4)nn(-c4ccnc(N)n4)c3c2)no1 [Example T1.1-88, [1-(2-aminopyrimidin-4-yl)-6-[(3S)-3-hydroxy-3-(5-methylisoxazol-3-yl)but-1-ynyl]indazol-3-yl]-morpholino-methanone]
27 | 52 nM | CN1CCN(C(=O)c2nn(-c3ccnc(N)n3)c3cc(C#CC(C)(O)c4ncccn4)ccc23)CC1 (stereo not drawn) [Example T1.1-89, [1-(2-aminopyrimidin-4-yl)-6-(3-hydroxy-3-pyrimidin-2-yl-but-1-ynyl)indazol-3-yl]-(4-methylpiperazin-1-yl)methanone]
28 | 54 nM | Cc1nn(-c2ccnc(N)n2)c2cc(C#CC(C)(O)c3nccn3C)ccc12 (stereo not drawn) [Example T1.1-90, 4-[1-(2-aminopyrimidin-4-yl)-3-methyl-indazol-6-yl]-2-(1-methyl-imidazol-2-yl)but-3-yn-2-ol]
29 | 69 nM | Cc1cnc(C(C)(O)C#Cc2ccc3c(C)nn(-c4ccnc(N)n4)c3c2)cn1 (stereo not drawn) [Example T1.1-91, 4-[1-(2-aminopyrimidin-4-yl)-3-methyl-indazol-6-yl]-2-(5-methyl-pyrazin-2-yl)but-3-yn-2-ol]
30 | 70 nM | CC(C)(O)C#Cc1ccc2cnn(-c3nc(N)ncc3-c3cn[nH]c3)c2c1 [Example T1.1-92, 4-[1-[2-amino-5-(1H-pyrazol-4-yl)pyrimidin-4-yl]indazol-6-yl]-2-methyl-but-3-yn-2-ol]
31 | 78 nM | Cc1cc(-n2nc(C)c3ccc(C#C[C@@](C)(O)c4noc(C)n4)cc32)nc(N)n1 [Example T1.1-93, (2R)-4-[1-(2-amino-6-methyl-pyrimidin-4-yl)-3-methyl-indazol-6-yl]-2-(5-methyl-1,2,4-oxadiazol-3-yl)but-3-yn-2-ol]
32 | 85 nM | Cc1cc(-n2nc(C)c3ccc(C#CC(C)(O)c4ncccn4)cc32)nc(N)n1 (stereo not drawn) [Example T1.1-94, 4-[1-(2-amino-6-methyl-pyrimidin-4-yl)-3-methyl-indazol-6-yl]-2-pyrimidin-2-yl-but-3-yn-2-ol]
33 | 87 nM | Cn1ccc(C(C)(O)C#Cc2ccc3c(C(C)(C)O)nn(-c4ccnc(N)n4)c3c2)n1 (stereo not drawn) [Example T1.1-95, 4-[1-(2-aminopyrimidin-4-yl)-3-(1-hydroxy-1-methyl-ethyl)indazol-6-yl]-2-(1-methylpyrazol-3-yl)but-3-yn-2-ol]
